Data reported in patent EP3733658B1, “PRENYLATED BENZOPYRANES AS PPAR AGONISTS” (Universitat de València, priority 2017, dated 2019).

Tests used:
hPPARα = target: T1, hPPARα (Homo sapiens, UniProt Q07869); assay: PPAR/Gal4 chimera luciferase reporter transactivation assay in transiently transfected Cos-7 cells (hPPARα); format: cell-based
T1 sequence (Q07869 167-468): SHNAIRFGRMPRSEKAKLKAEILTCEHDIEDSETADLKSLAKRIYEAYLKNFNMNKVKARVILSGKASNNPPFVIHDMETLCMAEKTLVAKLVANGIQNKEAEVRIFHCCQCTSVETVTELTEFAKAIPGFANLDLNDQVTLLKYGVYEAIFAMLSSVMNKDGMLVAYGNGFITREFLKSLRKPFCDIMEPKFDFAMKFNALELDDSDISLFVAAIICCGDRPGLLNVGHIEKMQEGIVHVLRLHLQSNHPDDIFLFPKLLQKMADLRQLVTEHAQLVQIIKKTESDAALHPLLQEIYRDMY
Description: (§1) The cells were maintained under standard culture conditions (Dulbecco modified minimum essential Eagle medium, DMEM) supplemented with 10% fetal calf serum (FCS) at 37°C in 5% […] CO2 atmosphere. The medium was changed every 2 days. The Cos-7 cells were seeded in 60 mm discs at a density of 5.5 × 10^5 cells/disc in DMEM supplemented with 10% FCS and incubated at 37°C for 16 h before transfection. The cells were transfected in DMEM using jetPEI, with reporter (pG5-TK-pGL3) and expression (pGal4-h, hPPARα or hPPARγ) plasmids. The expression plasmid pCMV-β-galactosidase was cotransfected as a control for transfection efficacy. After 16 h the transfection was stopped adding DMEM supplemented with 10% FCS, and the cells were trypsinised and seeded in 96-well plates and incubated for 6 h in DMEM containing 10% FCS. Subsequently, the cells were incubated for 24 h in DMEM containing 0.2% FCS and increasing concentrations of the compounds or the vehicle (DMSO, maximum concentration 0.1%) were tested. Finally, the cells were washed once with PBS cooled on ice, lysed and the luciferase and β-galactosidase assays were performed.
(§2) To evaluate the compounds for PPAR transcriptional activity, the tests were conducted in a PPAR/Gal4 chimera of a human luciferase reporter gene to determine the maximum transactivation response of each compound.

hPPARγ = target: T2, hPPARγ (Homo sapiens, UniProt P37231); assay: PPAR/Gal4 chimera luciferase reporter transactivation assay in transiently transfected Cos-7 cells (hPPARγ); format: cell-based
T2 sequence (P37231 238-505): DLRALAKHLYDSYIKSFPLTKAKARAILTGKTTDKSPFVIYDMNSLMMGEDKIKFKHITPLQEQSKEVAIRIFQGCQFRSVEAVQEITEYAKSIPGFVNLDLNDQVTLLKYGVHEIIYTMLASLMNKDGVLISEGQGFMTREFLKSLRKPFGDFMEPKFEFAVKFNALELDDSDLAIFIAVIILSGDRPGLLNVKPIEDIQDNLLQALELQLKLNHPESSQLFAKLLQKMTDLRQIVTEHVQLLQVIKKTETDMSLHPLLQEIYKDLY
Description: as §1, §2

[1] = tested on: mononuclear cell adhesion to HUVEC induced by TNFα; assay: Parallel flow chamber: mononuclear cell adhesion to TNFα-stimulated HUVEC; format: cell-based, human
Description: The parallel flow camera technique was used, which allows viewing cell adhesion under dynamic physiological flow conditions.
In the execution of this study, neutrophils and mononuclear cells were perfused through monolayers of HUVEC previously stimulated, or not, with TNFα (20 ng/mL) for 24 h. For this purpose, the neutrophils and human mononuclear cells were obtained in suspension from healthy volunteers by the Ficoll-Hypaque method, centrifuging by density gradient. Freshly isolated cells (1 × 10^6/mL) were perfused through the monolayer of endothelial cells (HUVEC) stimulated, or not, with TNFα for 24 h. In all the experiments the interactions of the leukocytes were determined after being perfused for 5 min at 0.5 dyne/cm^2. The HUVEC plates were placed in the flow chamber (GlycoTech, Gaithersburg, MD) and a camera was coupled to a phase-contrast inverted microscope (Axio Observer A1 Carl Zeiss microscope, Thornwood, NY) to view cell adhesion (20x lens and 10x eyepiece). In addition, the images were recorded on video for subsequent analysis.

ICAM-1 = assay: Flow cytometry of TNFα-induced ICAM-1 expression in HUVEC; format: cell-based, human; conditions: TNFα 20 ng/mL 24 h
Description: (§3) The cells were collected from the flasks using accutase (StemPro® Accutase® Cell Dissociation Reagent, ThermoFischer Scientific, Waltham, MA).
(§4) Then they were washed and incubated for 1 h with a APC-conjugated mAb antibody against human VCAM-1 (100 µg/mL; clone STA, BioLegend, San Diego, CA), a FITC- conjugated mAb against human ICAM-1 (400 µg/mL; clone HA58, BioLegend, San Diego, CA), a PE-conjugated mAb against human CX3CL1 (1.25 µg/mL; clone 51637, R&D Systems, Minneapolis, MN) or with a APC-conjugated mAb antibody against human CXCL16 (clone 256213, R&D Systems, Abingdon, UK), all at a dilution of 1:25 in 3% BSA/PBS. The samples were analyzed using a BD FACSVerse Flow Cytometer (BD Biosciences, San Jose, CA).

VCAM-1 = assay: Flow cytometry of TNFα-induced VCAM-1 expression in HUVEC; format: cell-based, human; conditions: TNFα 20 ng/mL 24 h
Description: as §3, §4

CX3CL1 = assay: Flow cytometry of TNFα-induced CX3CL1 (fractalkine) expression in HUVEC; format: cell-based
Description: as §3, §4

p38 MAPK = assay: Flow cytometry of TNFα-induced p38 MAPK phosphorylation in HUVEC; format: cell-based, human; conditions: TNFα 20 ng/mL 1 h
Description: (§5) HUVEC were previously incubated for 24 h with compound 1 (10 µM), for use according to the present invention, or with compound 9 (3 µM), of the invention, and stimulated for 1 h with TNFα (20 ng/mL). The endothelial cells were fixed with BD Cytofix Fixation Buffer (BD Biosciences, San Jose, CA) and permeabilized with BD Sol Perm III solution (BD Biosciences, San Jose, CA) and sequentially stained with a 1:10 dilution of a PE-conjugated mAb antibody against human p65 (pS529, clone K10-895.12.50; BD Biosciences, San Jose, CA) and a 1:10 dilution of Alexa Fluor-conjugated mAb antibody against human p38 MAPK ([…], clone 36/p38; BD Biosciences, San Jose, CA). The cells were analyzed with a BD FACSVerse flow cytometer (BD Biosciences, San Jose, CA).

NF-κB (p65) = assay: Flow cytometry of TNFα-induced p65 (NF-κB) phosphorylation in HUVEC; format: cell-based, human; conditions: TNFα 20 ng/mL 1 h
Description: as §5

[2] = ratio of IC50, mononuclear cell adhesion

Structure (SMILES): C/C(=C\CCC1(C)CCc2cc(O)cc(C)c2O1)CC/C=C(\C)C(=O)O (centres unmarked) [Polycerasoidol, 1, polycerasoidol]
- Emax (hPPARα; COS-7, read-out: hPPARα Efficacy (%)): 107%
- Emax (hPPARγ; COS-7, read-out: hPPARγ Efficacy (%)): 95%
- IC50 ([1]; Homo sapiens, HUVEC, pretreatment 20 h, TNFα 20 ng/mL 24 h, perfusion 5 min at 0.5 dyn/cm2, read-out: IC50 adhesion of HUVEC-mononuclear cells): 4900 nM
- times less potent than rosiglitazone [1, 2]: 5
- inhibition of ICAM-1 expression induced by TNFα (ICAM-1; 10 µM, 20 h pretreatment): 23.8%
- inhibition of VCAM-1 expression induced by TNFα (VCAM-1; 10 µM, 20 h pretreatment): 87.8%
- reduced the expression of fractalkine (CX3CL1) (CX3CL1; 10 µM, TNFα 24 h): 77.6%
- decrease of the activation of p38 MAPK (p38 MAPK; 10 µM): 63.4%
- activation of NF-κB induced by TNFα (NF-κB (p65); 10 µM): inhibit significantly

Structure (SMILES): CCOC(=O)CCC(C)=CCCC1(C)CCc2cc(OCc3ccc(F)cc3)ccc2O1 (centres unmarked) [Compound 9]
- hPPARα Efficacy (%) (hPPARα; maximum activity as percentage of the maximum activity of WY-14643): 251%
- EC50 (hPPARα; read-out: hPPARα EC50, Cos-7 cells, 24 h, tested 0.001 to 10 µM): 300 nM
- hPPARγ Efficacy (%) (hPPARγ; maximum activity as percentage of the maximum activity of rosiglitazone): 57%
- EC50 (hPPARγ; read-out: hPPARγ EC50, Cos-7 cells, 24 h, tested 0.001 to 10 µM): 400 nM
- potency times greater than polycerasoidol [1, 2]: ~16
- potency times greater than rosiglitazone [1, 2]: approximately 3.6
- expression of ICAM-1 induced by TNFα (ICAM-1; 3 µM): but not ICAM-1
- expression of VCAM-1 induced by TNFα (VCAM-1; 3 µM): significant decrease
- expression of CX3CL1 induced by TNFα (CX3CL1; 3 µM, TNFα 20 ng/mL 24 h): significant decrease
- decrease of the activation of p38 MAPK (p38 MAPK; 3 µM): 71.9%
- activation of NF-κB induced by TNFα (NF-κB (p65); 3 µM): inhibit significantly
